Structures can show the parent of a compound that is named as a salt.
Key:
[1] = molecular target: T1, IKKε (Homo sapiens, UniProt Q14164); test: IKKε biochemical assay; conditions: 10 point 1:4 dose response, 30 uM top concentration, 90 min at 25° C., LabChip EZ Reader II; read-out: IKKε_IC50
T1 sequence (Q14164 1-716): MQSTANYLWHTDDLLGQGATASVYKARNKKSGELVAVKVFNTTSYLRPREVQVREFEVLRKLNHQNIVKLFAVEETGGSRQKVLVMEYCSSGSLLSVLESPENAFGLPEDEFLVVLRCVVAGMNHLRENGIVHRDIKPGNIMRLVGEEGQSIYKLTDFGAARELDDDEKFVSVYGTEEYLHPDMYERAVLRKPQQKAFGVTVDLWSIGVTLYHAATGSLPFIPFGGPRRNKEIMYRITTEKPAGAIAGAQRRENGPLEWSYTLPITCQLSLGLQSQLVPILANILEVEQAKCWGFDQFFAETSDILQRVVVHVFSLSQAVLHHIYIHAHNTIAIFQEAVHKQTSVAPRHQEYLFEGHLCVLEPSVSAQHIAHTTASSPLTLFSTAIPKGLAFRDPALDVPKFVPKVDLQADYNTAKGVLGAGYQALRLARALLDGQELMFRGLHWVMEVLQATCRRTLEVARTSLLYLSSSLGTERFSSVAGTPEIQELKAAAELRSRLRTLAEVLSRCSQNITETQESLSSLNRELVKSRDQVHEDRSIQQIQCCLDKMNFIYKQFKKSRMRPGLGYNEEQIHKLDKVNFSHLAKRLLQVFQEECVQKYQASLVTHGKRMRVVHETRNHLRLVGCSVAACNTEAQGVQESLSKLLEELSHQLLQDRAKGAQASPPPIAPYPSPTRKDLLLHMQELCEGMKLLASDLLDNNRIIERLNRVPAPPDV
In short: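 Compounds in 1% DMSO final were incubated with IKKε enzyme and substrate at 25° C. for 90 min, then stopped. Substrate and product peaks were resolved by LabChip EZ Reader II mobility-shift read-out. Staurosporine at 10 uM final served as the full-inhibition control.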

[2] = molecular target: T2, TBK1 (Homo sapiens, UniProt Q9UHD2); test: TBK biochemical assay; conditions: 10 point 1:4 dose response, 30 uM top concentration, 90 min at 25° C., LabChip EZ Reader II; read-out: TBK1_IC50
T2 sequence (Q9UHD2 1-729): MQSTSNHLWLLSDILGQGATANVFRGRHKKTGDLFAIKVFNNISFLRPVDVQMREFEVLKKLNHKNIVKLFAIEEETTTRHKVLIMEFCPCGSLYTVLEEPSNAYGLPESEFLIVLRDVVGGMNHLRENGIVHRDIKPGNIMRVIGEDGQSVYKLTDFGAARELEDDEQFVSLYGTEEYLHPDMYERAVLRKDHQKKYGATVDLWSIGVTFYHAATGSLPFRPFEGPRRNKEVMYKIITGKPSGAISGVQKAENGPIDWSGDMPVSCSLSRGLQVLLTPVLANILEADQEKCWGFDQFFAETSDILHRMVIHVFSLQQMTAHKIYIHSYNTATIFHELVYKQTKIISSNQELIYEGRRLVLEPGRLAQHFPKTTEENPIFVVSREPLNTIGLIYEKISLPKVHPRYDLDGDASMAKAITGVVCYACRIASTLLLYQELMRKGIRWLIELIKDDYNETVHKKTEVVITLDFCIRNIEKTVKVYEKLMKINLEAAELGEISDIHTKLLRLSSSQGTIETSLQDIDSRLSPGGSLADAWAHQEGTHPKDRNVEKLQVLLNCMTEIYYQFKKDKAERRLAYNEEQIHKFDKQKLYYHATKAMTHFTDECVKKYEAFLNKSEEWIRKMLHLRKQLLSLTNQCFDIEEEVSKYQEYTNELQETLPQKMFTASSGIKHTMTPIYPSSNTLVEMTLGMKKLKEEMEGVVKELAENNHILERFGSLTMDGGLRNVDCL
In short: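 Substrate and product were separated and quantified by microfluidic mobility-shift read (LabChip). 10 uM staurosporine served as the full-inhibition control, and the reference compound was tested from 1 uM final.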

Compound | IC50 [1] [nM] | IC50 [2] [nM]
COc1nc(Nc2nccc(-c3ccc(OC4CCOCC4)c(C#N)c3)n2)ccc1C(=O)NC1CN2CCC1CC2 (centres unmarked) [Example 21, 6-((4-(3-cyano-4-((tetrahydro-2H-pyran-4-yl)oxy)phenyl)pyrimidin-2-yl)amino)-2-methoxy-N-(quinuclidin-3-yl)nicotinamide] | < 100 | < 100
COc1nc(Nc2nccc(-c3ccc(OC4CCNCC4)c(C#N)c3)n2)ccc1N1CCN(C)CC1 [Example 89, 5-(2-[[6-methoxy-5-(4-methylpiperazin-1-yl)pyridin-2-yl]amino]pyrimidin-4-yl)-2-(piperidin-4-yloxy)benzonitrile] | < 100 | < 100
COc1nc(Nc2nccc(-c3ccc(OC4CCOCC4)c(C#N)c3)n2)ccc1N(C)CC(=O)N(C)C [Example 35, 2-[[6-([4-[3-cyano-4-(oxan-4-yloxy)phenyl]pyrimidin-2-yl]amino)-2-methoxypyridin-3-yl](methyl)amino]-N,N-dimethylacetamide hydrochloride] | < 100 | < 100
COc1nc(Nc2nccc(-c3ccc(OC4CCOCC4)c(C#N)c3)n2)ccc1C(=O)N(C)CCO [Example 3, 6-([4-[3-cyano-4-(oxan-4-yloxy)phenyl]pyrimidin-2-yl]amino)-N-(2-hydroxyethyl)-2-methoxy-N-methylpyridine-3-carboxamide] | < 100 | < 100
COc1ccc(Nc2nccc(-c3ccc(OC4CCN(C(=O)[C@@H](O)CO)CC4(F)F)c(C#N)c3)n2)nc1OC (stereo partly drawn) [Example 244, 2-[1-((S)-2,3-Dihydroxy-propionyl)-3,3-difluoro-piperidin-4-yloxy]-5-[2-(5,6-dimethoxy-pyridin-2-ylamino)-pyrimidin-4-yl]-benzonitrile] | < 100 | < 100

Results, then the molecule that gave them:

IC50 [1] [nM] | IC50 [2] [nM] | Compound
< 100 | < 100 | COc1nc(Nc2nccc(-c3ccc(OC4CCOCC4)c(C#N)c3)n2)ccc1CNC1CCN(C)CC1 [Example 41, 5-[2-[(6-methoxy-5-[[(1-methylpiperidin-4-yl)amino]methyl]pyridin-2-yl)amino]pyrimidin-4-yl]-2-(oxan-4-yloxy)benzonitrile hydrochloride]
100 to 1000 | 100 to 1000 | COc1nc(Nc2nccc(-c3ccc(O[C@@H]4CCN(C(=O)[C@@H](C)O)C[C@H]4F)c(C#N)c3)n2)ccc1C1CCN(C2COC2)CC1 [Example 193, 2-[(3R,4R)-3-Fluoro-1-((R)-2-hydroxy-propionyl)-piperidin-4-yloxy]-5-[2-(2-methoxy-1′-oxetan-3-yl-1′,2′,3′,4′,5′,6′-hexahydro-[3,4′]bipyridinyl-6-ylamino)-pyrimidin-4-yl]-benzonitrile]
< 100 | < 100 | COc1nc(Nc2nccc(-c3ccc(OC4CCN(C(=O)C(C)O)CC4(F)F)c(C#N)c3)n2)ccc1C1CCN(C2COC2)CC1 (centres unmarked) [Example 329, 2-[[33-difluoro-1-(2-hydroxypropanoyl)piperidin-4-yl]oxy]-5-[2-([6-methoxy-5-[1-(oxetan-3-yl)piperidin-4-yl]pyridin-2-yl]amino)pyrimidin-4-yl]benzonitrile]
< 100 | < 100 | CC(O)C(=O)N1CCC(Oc2ccc(-c3ccnc(Nc4ccc(C5CCN(C)CC5)cc4)n3)cc2C#N)C(F)(F)C1 (centres unmarked) [Example 149, 2-[[3,3-difluoro-1-(2-hydroxypropanoyl)piperidin-4-yl]oxy]-5-(2-[[4-(1-methylpiperidin-4-yl)phenyl]amino]pyrimidin-4-yl)benzonitrile]
100 to 1000 | 100 to 1000 | COc1nc(Nc2nccc(-c3ccc(OC4CCN(C(=O)[C@@H](C)O)C4)c(C#N)c3)n2)ccc1N1CCN(C2COC2)CC1 (stereo partly drawn) [Example 184, 2-([1-[(2R)-2-hydroxypropanoyl]pyrrolidin-3-yl]oxy)-5-[2-([6-methoxy-5-[4-(oxetan-3-yl)piperazin-1-yl]pyridin-2-yl]amino)pyrimidin-4-yl]benzonitrile]

— patent publication US20230019491A1, “PYRIMIDINE TBK/IKKe INHIBITOR COMPOUNDS AND USES THEREOF” (Merck Patent GmbH, priority 2017, published 2023)
